Assay [1] addresses T1, recombinant human 17β-HSD2 (Homo sapiens, UniProt P37059).
T1 construct: made in house; host or cells: Sf9 insect cells (baculovirus, Bac to Bac Expression System)
T1 sequence (P37059 1-387): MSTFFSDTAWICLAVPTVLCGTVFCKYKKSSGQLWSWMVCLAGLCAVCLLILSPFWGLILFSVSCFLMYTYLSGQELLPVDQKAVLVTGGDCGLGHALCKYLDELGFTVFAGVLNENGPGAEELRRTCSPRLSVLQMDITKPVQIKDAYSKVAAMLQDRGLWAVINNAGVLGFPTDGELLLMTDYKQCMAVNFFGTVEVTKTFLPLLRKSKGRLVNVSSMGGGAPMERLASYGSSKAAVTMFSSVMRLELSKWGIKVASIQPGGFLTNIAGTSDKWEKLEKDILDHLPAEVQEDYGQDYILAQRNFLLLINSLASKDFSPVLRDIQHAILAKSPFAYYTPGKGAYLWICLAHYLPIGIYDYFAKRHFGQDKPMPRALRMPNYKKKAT
In words: Recombinant 17β-HSD2 assay (HPLC, 3H-estradiol conversion). The format is biochemical. Conditions: 50 nM estradiol, 1 mM β-NAD, read-out: Inhibition of rec. 17β-HSD2; for inhibition at 0.1 µM: 100 nM compound; for inhibition at 1 µM: 1 μm compound. How it is done: 17β-HSD1 or 17β-HSD2 purification: Recombinant 17β-HSD1 and 17β-HSD2 baculoviruses were generated by the “Bac to Bac Expression System” (Invitrogen). Recombinant 17β-HSD1 or 17β-HSD2 bacmids were transfected to Sf9 insect cells using “Cellfectin Reagent” (Invitrogen). 60 h later cells were harvested; the fractions including 17β-HSD1 or 17β-HSD2 were isolated as described by Puranen et al. (1994). Aliquots were stored frozen until determination of enzymatic activity. Recombinant 17β-HSD2 assay: Recombinant 17β-HSD2 assay was performed as described for 17β-HSD1 but with following modifications: 6 μg/ml of recombinant protein homogenate, 50 nM Estradiol (Sigma, E8875) as a substrate, 800 000 cpm/ml ^3H-estradiol (PerkinElmer, NET317) as a tracer substrate and 1 mM β-NAD (Sigma N7004) as a co-factor were used. Total radioactivity for estrone and estradiol were determined in each sample and percent inhibition of estrone conversion by the respective inhibitor was calculated. For the calculation of % inhibition the following formula was used: [formula] Percent inhibition was calculated as follows: % inhibition=100−% conversion

The target of assay [2] is T2, recombinant human 17β-HSD1 (Homo sapiens, UniProt P14061).
T2 construct: made in house; host or cells: Sf9 insect cells (baculovirus, Bac to Bac Expression System)
T2 sequence (P14061 1-328): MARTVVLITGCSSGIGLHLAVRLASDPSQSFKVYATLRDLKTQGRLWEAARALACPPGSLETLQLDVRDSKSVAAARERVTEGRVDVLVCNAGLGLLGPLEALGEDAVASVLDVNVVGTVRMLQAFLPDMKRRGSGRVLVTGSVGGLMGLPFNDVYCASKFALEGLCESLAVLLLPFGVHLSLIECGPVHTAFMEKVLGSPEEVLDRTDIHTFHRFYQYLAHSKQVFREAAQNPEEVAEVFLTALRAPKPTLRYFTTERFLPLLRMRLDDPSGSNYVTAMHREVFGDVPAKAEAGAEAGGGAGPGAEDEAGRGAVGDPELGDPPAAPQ
Put plainly: Recombinant 17β-HSD1 assay (HPLC, 3H-estrone conversion). The format is biochemical. Conditions: 30 nM estrone, 1 mM NADPH, 30 min RT, read-out: Inhibition of rec. 17β-HSD1; for inhibition at 0.1 µM: 100 nM compound; for inhibition at 1 µM: 0.5 h, 1 μm compound. As to the method: 17β-HSD1 or 17β-HSD2 purification: Recombinant 17β-HSD1 and 17β-HSD2 baculoviruses were generated by the “Bac to Bac Expression System” (Invitrogen). Recombinant 17β-HSD1 or 17β-HSD2 bacmids were transfected to Sf9 insect cells using “Cellfectin Reagent” (Invitrogen). 60 h later cells were harvested; the fractions including 17β-HSD1 or 17β-HSD2 were isolated as described by Puranen et al. (1994). Aliquots were stored frozen until determination of enzymatic activity.
Recombinant 17β-HSD1 assay: Recombinant protein homogenate (0.1 μg/ml) was incubated in 20 mM KH2PO4 pH 7.4 reaction buffer, including protease inhibitors (Complete Protease Inhibitor Cocktail tablet, Roche Diagnostics, 1697498), with 30 nM estrone (Sigma, E9750) as substrate, 800 000 cpm/ml ^3H-estrone (PerkinElmer, NET319001MC) as a tracer substrate, and 1 mM NADPH (Sigma, N1630) as a co-factor for 30 min at RT, in the presence of potential inhibitors at concentrations of 1 μM or 0.1 μM. Inhibitor stock solutions were prepared in DMSO. The enzyme reaction was stopped by addition of trichloroacetic acid (1% final concentration). Samples were centrifuged in a microtiter plate at 4000 rpm for 10 min. Supernatants were applied to reverse phase HPLC on a Waters Symmetry C18 column, equipped with a Waters Sentry Guard column. Isocratic HPLC runs were performed at RT at a flow rate of 1 ml/min of acetonitrile:water 48:52 as running solvent. Radioactivity was monitored in the eluate by a Packard Flow Scintillation Analyzer. Total radioactivity for estrone and estradiol were determined in each sample and percent inhibition of estradiol conversion by the respective inhibitor was calculated
For the calculation of % inhibition the following formula was used:
[formula] Percent inhibition was calculated as follows: % inhibition=100−% conversion

The values that follow come from patent publication US8288367B2, “Substituted estratriene derivatives as 17BETA HSD inhibitors” (Solvay Pharmaceuticals GmBH, priority 2006, dated 2012).

The inhibition is the drop in the measured response relative to a control, in per cent.

Consider `C[C@]12CC[C@@H]3c4ccc(B(O)O)cc4CC[C@H]3[C@@H]1[C@@H](CCCC(=O)NCc1ccc(O)c(O)c1)CC2=O` [Compound 12, [15alpha-{4-[(3,4-dihydroxybenzyl)amino]-4-oxobutyl}-17-oxoestra-1(10),2,4-trien-3-yl]boronic acid], for which, in assay [1], the inhibition at 0.1 µM is -5% and the inhibition at 1 µM was determined as 6.2%. In assay [2], the inhibition at 0.1 µM was 32% and the inhibition at 1 µM was 57%.

On to `C[C@]12CC[C@@H]3c4ccc(B(O)O)cc4CC[C@H]3[C@@H]1[C@H](CCC(=O)Nc1ccc3c(c1)OCO3)CC2(F)F` [Compound 74, [15beta-[3-(1,3-benzodioxol-5-ylamino)-3-oxopropyl]-17,17-difluoroestra-1(10),2,4-trien-3-yl]boronic acid], for which, in assay [1], the inhibition at 0.1 µM came out at 4.9% and the inhibition at 1 µM amounted to 5.5%. For the same compound, in assay [2], the inhibition at 0.1 µM was 55.6% and the inhibition at 1 µM turned out to be 71.4%.

For `COc1cc(Nc2ccc3c(c2)CC[C@H]2[C@@H]4[C@@H](CCCC(=O)N5CCOCC5)CC(=O)[C@@]4(C)CC[C@H]32)cc(C(F)(F)F)c1` [Compound 75, 3-{[3-methoxy-5-(trifluoromethyl)phenyl]amino}-15alpha-(4-morpholin-4-yl-4-oxobutyl)estra-1(10),2,4-trien-17-one], in assay [2], the inhibition at 0.1 µM stood at 36% and the inhibition at 1 µM was 50%.

Take `C[C@]12CC[C@@H]3c4ccc(B(O)O)cc4CC[C@H]3[C@@H]1[C@H](CCC(=O)NC1CCCCC1)CC2=O` [Compound 32, [15beta-[3-(cyclohexylamino)-3-oxopropyl]-17-oxoestra-1(10),2,4-trien-3-yl]boronic acid]: in assay [1], the inhibition at 0.1 µM was found to be 1.1% and the inhibition at 1 µM is 3.5%. Besides, in assay [2], the inhibition at 0.1 µM was 77% and the inhibition at 1 µM came out at 91%.

`C[C@]12CC[C@@H]3c4ccc(B(O)O)cc4CC[C@H]3[C@@H]1[C@@H](CCCC(=O)NCc1ccc3c(c1)OCO3)CC2=O` [Compound 19, [15alpha-{4-[(1,3-benzodioxol-5-ylmethyl)amino]-4-oxobutyl}-17-oxoestra-1(10),2,4-trien-3-yl]boronic acid]: in assay [1], the inhibition at 0.1 µM was -2.4% and the inhibition at 1 µM stood at 0.1%. Moreover, in assay [2], the inhibition at 0.1 µM is 19% and the inhibition at 1 µM is 43%.

Turning to `C[C@]12CC[C@@H]3c4ccc(B(O)O)cc4CC[C@H]3[C@@H]1[C@H](CCC(=O)NCc1ccc3c(c1)OCO3)CC2=O` [Compound 34, [15beta-{3-[(1,3-benzodioxol-5-ylmethyl)amino]-3-oxopropyl}-17-oxoestra-1(10),2,4-trien-3-yl]boronic acid], in assay [1], the inhibition at 0.1 µM amounted to 3.2% and the inhibition at 1 µM worked out at 0.4%. In assay [2], the inhibition at 0.1 µM is 47% and the inhibition at 1 µM is 65%.

`Cc1cnc(NC(=O)CC[C@@H]2CC(=O)[C@@]3(C)CC[C@@H]4c5ccc(B(O)O)cc5CC[C@H]4[C@H]23)s1` [Compound 31, [15beta-{3-[(5-methyl-1,3-thiazol-2-yl)amino]-3-oxopropyl}-17-oxoestra-1(10),2,4-trien-3-yl]boronic acid]: in assay [1], the inhibition at 0.1 µM came to 2.6% and the inhibition at 1 µM stood at 1.6%. In assay [2], the inhibition at 0.1 µM stood at 82% and the inhibition at 1 µM turned out to be 90%.

Regarding `C[C@]12CC[C@@H]3c4ccc(B(O)O)cc4CC[C@H]3[C@@H]1[C@@H](CCCC(=O)NCc1ccccc1)CC2(F)F` [Compound 54, [15alpha-[4-(benzylamino)-4-oxobutyl]-17,17-difluoroestra-1(10),2,4-trien-3-yl]boronic acid], the inhibition at 0.1 µM in assay [1] amounted to 7.6%; in assay [2] it was 41%. Also, the inhibition at 1 µM in assay [1] is 25.2%; in assay [2], 58%.

For the compound `C[C@]12CC[C@@H]3c4ccc(B(O)O)cc4CC[C@H]3[C@@H]1[C@H](CCC(=O)NCc1cccnc1)CC2(F)F` [Compound 62, [17,17-Difluoro-15beta-{3-oxo-3-[(pyridin-3-ylmethyl)amino]propyl}estra-1(10),2,4-trien-3-yl]boronic acid], in assay [1], the inhibition at 0.1 µM was found to be 6.2% and the inhibition at 1 µM was determined as 8.3%. Besides, in assay [2], the inhibition at 0.1 µM came out at 36% and the inhibition at 1 µM stood at 56%.

`C[C@]12CC[C@@H]3c4ccc(Nc5cnc6ccccc6c5)cc4CC[C@H]3[C@@H]1[C@@H](CCCC(=O)N1CCOCC1)CC2=O` [Compound 83, 15alpha-(4-morpholin-4-yl-4-oxobutyl)-3-(quinolin-3-ylamino)estra-1(10),2,4-trien-17-one]: in assay [2], the inhibition at 0.1 µM came out at 19% and the inhibition at 1 µM is 50%.

With `Cc1cnc(NC(=O)CCC[C@H]2CC(=O)[C@@]3(C)CC[C@@H]4c5ccc(B(O)O)cc5CC[C@H]4[C@H]23)s1` [Compound 16, [15alpha-{4-[(5-methyl-1,3-thiazol-2-yl)amino]-4-oxobutyl}-17-oxoestra-1(10),2,4-trien-3-yl]boronic acid], in assay [2], the inhibition at 0.1 µM is 30% and the inhibition at 1 µM stood at 59%.

Take `CN(Cc1ccccc1)C(=O)CC[C@@H]1CC(=O)[C@@]2(C)CC[C@@H]3c4ccc(B(O)O)cc4CC[C@H]3[C@H]12` [Compound 37, [15beta-{3-[benzyl(methyl)amino]-3-oxopropyl}-17-oxoestra-1(10),2,4-trien-3-yl]boronic acid]: in assay [2], the inhibition at 0.1 µM was determined as 22% and the inhibition at 1 µM was determined as 49%.

Turning to `CN(Cc1ccccc1)C(=O)CCC[C@H]1CC(=O)[C@@]2(C)CC[C@@H]3c4ccc(B(O)O)cc4CC[C@H]3[C@H]12` [Compound 22, [15alpha-{4-[benzyl(methyl)amino]-4-oxobutyl}-17-oxoestra-1(10),2,4-trien-3-yl]boronic acid], in assay [2], the inhibition at 0.1 µM came out at 37% and the inhibition at 1 µM was determined as 60%.

With `COc1ccc(CCN(C)C(=O)CCC[C@H]2CC(=O)[C@@]3(C)CC[C@@H]4c5ccc(B(O)O)cc5CC[C@H]4[C@H]23)cc1OC` [Compound 26, [15alpha-(4-{[2-(3,4-dimethoxyphenyl)ethyl](methyl)amino}-4-oxobutyl)-17-oxoestra-1(10),2,4-trien-3-yl]boronic acid], in assay [2], the inhibition at 0.1 µM came out at 21% and the inhibition at 1 µM is 41%.

Turning to `C[C@]12CC[C@@H]3c4ccc(Nc5cccc(S(=O)(=O)N6CCOCC6)c5)cc4CC[C@H]3[C@@H]1[C@@H](CCCC(=O)N1CCOCC1)CC2=O` [Compound 76, 15alpha-(4-morpholin-4-yl-4-oxobutyl)-3-{[3-(morpholin-4-ylsulfonyl)phenyl]amino}estra-1(10),2,4-trien-17-one], in assay [2], the inhibition at 0.1 µM came to 29% and the inhibition at 1 µM was 26%.
